Results taken from ChEMBL document CHEMBL3885861, “Open TG-GATES”.

Species: Rattus norvegicus
Experiment: Open TG-GATES - Regimen: Daily Repeat
Type: toxicity, organism-based, Sprague-Dawley
Set-up: regimen Daily Repeat, gender Male, age 6 weeks
Conditions: in vivo, po, 50 mg/kg, […], route gavage, dose level High; for LIVER: tissue Liver; for A/G / ALP / ALT / AST / BUN / CRE / Ca / Cl / DBIL / GLC / IP / K / LDH / Na / PL / RALB / TBIL / TC / TG / TP / gamma-GTP: tissue Plasma

`C=C(C)[C@H]1Cc2c(ccc3c2O[C@@H]2COc4cc(OC)c(OC)cc4[C@@H]2C3=O)O1` [ROTENONE] was tested, and the Fbg (tissue Blood, time 28 day) was 163.2 mg/dL, the Hb (tissue Blood, time 28 day) was 16 g/dL and the Ht (tissue Blood, time 28 day) was 48.6%. For the same molecule, the Lym (tissue Blood, time 28 day) was 80%, the MCH (tissue Blood, time 28 day) was 18.8 pg and the MCHC (tissue Blood, time 28 day) was 33%. The MCV (tissue Blood, time 28 day) was 56.9 fL, the Mono (tissue Blood, time 28 day) was 4.2% and the Neu (tissue Blood, time 28 day) was 15%. For the same molecule, the PT (tissue Blood, time 28 day) was 14.2 s, the Plat (tissue Blood, time 28 day) was 117.8 x10_4/uL and the RBC (tissue Blood, time 28 day) was 859 x10_4/ul. The Ret (tissue Blood, time 28 day) was 1.5%, the WBC (tissue Blood, time 28 day) was 88.4 x10_2/uL and the LIVER (time 7 day) was 12.9 g. For the same molecule, the LIVER (time 14 day) was 13.1 g, the LIVER (time 28 day) was 12 g and the A/G (time 7 day) was 2.2. For the same molecule, the ALP (time 7 day) was 1181.6 IU/L, the ALT (time 7 day) was 26.2 IU/L and the AST (time 7 day) was 65.8 IU/L. It also gave a BUN (time 7 day) of 18 mg/dL, a CRE (time 7 day) of 0.4 mg/dL and a Ca (time 7 day) of 11.7 mg/dL. For the same molecule, the Cl (time 7 day) was 104 meq/L, the DBIL (time 7 day) was 0.014 mg/dL and the GLC (time 7 day) was 198.6 mg/dL. It also gave an IP (time 7 day) of 6.4 mg/dL, a K (time 7 day) of 4.2 meq/L and an LDH (time 7 day) of 103.6 IU/L. It also gave a Na (time 7 day) of 141 meq/L, a PL (time 7 day) of 137.4 mg/dL and an RALB (time 7 day) of 4 g/dL. For the same molecule, the TBIL (time 7 day) was 0.022 mg/dL, the TC (time 7 day) was 73 mg/dL and the TG (time 7 day) was 80 mg/dL. The TP (time 7 day) was 5.8 g/dL, the gamma-GTP (time 7 day) was 0.8 IU/L and the A/G (time 14 day) was 2.4. For the same molecule, the ALP (time 14 day) was 1140.4 IU/L, the ALT (time 14 day) was 43.2 IU/L and the AST (time 14 day) was 101.8 IU/L. The BUN (time 14 day) was 22.4 mg/dL, the CRE (time 14 day) was 0.4 mg/dL and the Ca (time 14 day) was 11.5 mg/dL. For the same molecule, the Cl (time 14 day) was 105.2 meq/L, the DBIL (time 14 day) was 0.014 mg/dL and the GLC (time 14 day) was 178.8 mg/dL. For the same molecule, the IP (time 14 day) was 7.4 mg/dL, the K (time 14 day) was 4.3 meq/L and the LDH (time 14 day) was 108.4 IU/L. The Na (time 14 day) was 140.6 meq/L, the PL (time 14 day) was 145.8 mg/dL and the RALB (time 14 day) was 3.9 g/dL. It also gave a TBIL (time 14 day) of 0.032 mg/dL, a TC (time 14 day) of 68.4 mg/dL and a TG (time 14 day) of 121.2 mg/dL. It also gave a TP (time 14 day) of 5.6 g/dL, a gamma-GTP (time 14 day) of 1 IU/L and an A/G (time 28 day) of 2.2. It also gave an ALP (time 28 day) of 639.6 IU/L, an ALT (time 28 day) of 20.2 IU/L and an AST (time 28 day) of 53 IU/L. It also gave a BUN (time 28 day) of 20.8 mg/dL, a CRE (time 28 day) of 0.4 mg/dL and a Ca (time 28 day) of 10.6 mg/dL. For the same molecule, the Cl (time 28 day) was 107 meq/L, the DBIL (time 28 day) was 0.01 mg/dL and the GLC (time 28 day) was 188.2 mg/dL. For the same molecule, the IP (time 28 day) was 5.9 mg/dL, the K (time 28 day) was 4.4 meq/L and the LDH (time 28 day) was 79 IU/L. It also gave a Na (time 28 day) of 142.8 meq/L, a PL (time 28 day) of 122.4 mg/dL and an RALB (time 28 day) of 3.9 g/dL. For the same molecule, the TBIL (time 28 day) was 0.038 mg/dL, the TC (time 28 day) was 67.6 mg/dL and the TG (time 28 day) was 65.2 mg/dL. For the same molecule, the TP (time 28 day) was 5.8 g/dL and the gamma-GTP (time 28 day) was 1 IU/L.
